Results taken from patent publication US12454534B2, “Pyrrolo[2,3-b]pyrazines as HPK1 inhibitor and the use thereof” (BEIGENE, LTD., priority 2019, dated 2025).
pIC50: −log10 of the molar value.

Target: T1, HPK1 kinase (aa1-346, Life Technologies) (Homo sapiens, UniProt Q92918)
T1 construct: HPK1 kinase (aa1-346, Life Technologies); purchased Life Technologies
T1 sequence (Q92918 1-346): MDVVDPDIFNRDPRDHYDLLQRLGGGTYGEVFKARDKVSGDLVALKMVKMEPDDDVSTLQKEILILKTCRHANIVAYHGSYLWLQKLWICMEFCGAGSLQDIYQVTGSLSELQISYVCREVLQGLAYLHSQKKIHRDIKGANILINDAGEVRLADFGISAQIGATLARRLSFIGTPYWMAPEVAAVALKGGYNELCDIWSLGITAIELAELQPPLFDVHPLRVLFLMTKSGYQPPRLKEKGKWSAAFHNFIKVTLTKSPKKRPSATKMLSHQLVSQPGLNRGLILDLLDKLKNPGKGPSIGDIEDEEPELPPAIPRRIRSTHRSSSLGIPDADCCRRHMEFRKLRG
Assay: HPK1 Kinase Activity Assay at 1 mM ATP (TR-FRET)
Format: biochemical
Settings: HPK1 40 nM, read-out: Enzymatic activity IC50
Protocol: HPK1 Kinase Activity Assay at 1 mM ATP
Compounds disclosed herein were tested for inhibition of HPK1 kinase (aa1-346, Life Technologies) activity in assays based on the time-resolved fluorescence-resonance energy transfer (TR-FRET) methodology. The assays were carried out in 384-well low volume black plates in a reaction mixture containing HPK1 kinase (40 nM), 1 mM ATP, 0.5 μM STK1 substrate and 0-10 μM compound in buffer containing 50 mM HEPES, 0.01% BSA, 0.1 mM Orthovanadate, 10 mM MgCl2, 1 mM DTT, pH=7.0, 0.005% Tween-20. The kinase was incubated with the compounds disclosed herein or DMSO for 60 minutes at room temperature and the reaction was initiated by the addition of ATP and STK1 substrate. After reaction at room temperature for 120 minutes, an equal volume of stop/detection solution was added according to the manufacturer's instruction (CisBio). The stop/detection solution contained STK Antibody-Cryptate and XL665-conjugated streptavidin in Detection Buffer. The TR-FRET signals (ratio of fluorescence emission at 665 nm over emission at 620 nm with excitation at 337 nm wavelength) were recorded on a PHERAstar FS plate reader (BMG Labtech). Phosphorylation of STK1 substrate led to the binding of STK Antibody-Cryptate to the biotinylated STK1 substrate, which places fluorescent donor (Eu^3+ cryptate) in close proximity to the accepter (Streptavidin-XL665), thus resulting in a high degree of fluorescence resonance energy transfer. The inhibition of HPK1 in presence of increasing concentrations of compounds was calculated based on the ratio of fluorescence at 665 nm to that at 620 nm. The IC50 for each compound was derived from fitting the data to the four-parameter logistic equation by Graphpad Prism software.

pIC50	SMILES
7.03	Cc1cc(-c2c[nH]c3ncc(-c4cc(C)c5c(c4)CN(CCC(=O)N[C@H]4CC[C@H](O)C4)CC5)nc23)ccc1C(=O)N(C)C [Example 56, 4-(2-(2-(3-(((1S, 3S)-3-hydroxycyclopentyl)amino)-3-oxopropyl)-5-methyl-1,2,3,4-tetrahydroisoquinolin-7-yl)-5H-pyrrolo[2,3-b]pyrazin-7-yl)-N, N, 2-trimethylbenzamide]
7.44	Cc1cc(-c2cnc3[nH]cc(-c4ccc(C(=O)N(C)C[C@@H](C)O)cc4)c3n2)cc2c1CCN(C)C2 [Example 8, (R)-4-(2-(2,5-dimethyl-1,2,3,4-tetrahydroisoquinolin-7-yl)-5H-pyrrolo[2,3-b]pyrazin-7-yl)-N-(2-hydroxypropyl)-N-methylbenzamide]
7.96	COc1cc(-c2cnc3[nH]cc(-c4ccc(C(=O)N(C)C)cc4)c3n2)cc2c1CN(C)CC2 [Example 22, 4-(2-(8-methoxy-2-methyl-1,2,3,4-tetrahydroisoquinolin-6-yl)-5H-pyrrolo[2,3-b]pyrazin-7-yl)-N, N-dimethylbenzamide]
7.51	COc1cc(-c2cnc3[nH]cc(-c4cc(F)c(C(=O)N(C)C[C@H]5CCOC5)c(F)c4)c3n2)cc2c1CN(C)CC2 [Example 7B, (R)-2,6-difluoro-4-(2-(8-methoxy-2-methyl-1,2,3,4-tetrahydroisoquinolin-6-yl)-5H-pyrrolo[2,3-b]pyrazin-7-yl)-N-methyl-N-((tetrahydrofuran-3-yl)methyl)benzamide]
6.91	Cc1cc(-c2c[nH]c3ncc(-c4cc(C)c5c(c4)CN(CCC(=O)N[C@H]4CC[C@H](O)CC4)CC5)nc23)ccc1C(=O)N(C)C [Example 23, 4-(2-(2-(3-((trans-4-hydroxycyclohexyl)amino)-3-oxopropyl)-5-methyl-1,2,3,4-tetrahydroisoquinolin-7-yl)-5H-pyrrolo[2,3-b]pyrazin-7-yl)-N, N, 2-trimethylbenzamide]
7.20	Cc1cc(-c2c[nH]c3ncc(-c4cc(C)c5c(c4)CN(CCC(=O)N(C)C)CC5)nc23)ccc1C(=O)N(C)C [Example 26, 4-(2-(2-(3-(dimethylamino)-3-oxopropyl)-5-methyl-1,2,3,4-tetrahydroisoquinolin-7-yl)-5H-pyrrolo[2,3-b]pyrazin-7-yl)-N, N, 2-trimethylbenzamide]
7.62	Cc1cc(-c2c[nH]c3ncc(-c4cc(C)c5c(c4)CN(C)CC5)nc23)ccc1C(=O)N1CC(O)C1 [Example 17, (4-(2-(2,5-dimethyl-1,2,3,4-tetrahydroisoquinolin-7-yl)-5H-pyrrolo[2,3-b]pyrazin-7-yl)-2-methylphenyl) (3-hydroxyazetidine-1-yl)methanone]
7.68	[2H]C([2H])([2H])N(C(=O)c1ccc(-c2c[nH]c3ncc(-c4cc(C)c5c(c4)CCN(C)C5)nc23)cc1C)C([2H])([2H])[2H] [Example 128, 4-(2-(2,8-dimethyl-1,2,3,4-tetrahydroisoquinolin-6-yl)-5H-pyrrolo[2,3-b]pyrazin-7-yl)-2-methyl-N,N-bis(methyl-d3)benzamide]
7.68	COc1cc(-c2cnc3[nH]cc(-c4ccc(C(=O)N(C)C)cc4)c3n2)cc2c1CN(CC(C)(C)O)CC2 [Example 58, 4-(2-(2-(2-hydroxy-2-methylpropyl)-8-methoxy-1,2,3,4-tetrahydroisoquinolin-6-yl)-5H-pyrrolo[2,3-b]pyrazin-7-yl)-N, N-dimethylbenzamide]
7.44	Cc1cc(-c2cnc3[nH]cc(-c4ccc(C(=O)N(C)C[C@@H]5CCOC5)cc4)c3n2)cc2c1CCN(CCN1CCOCC1)C2 [Example 51, (S)—N-methyl-4-(2-(5-methyl-2-(2-morpholinoethyl)-1,2,3,4-tetrahydroisoquinolin-7-yl)-5H-pyrrolo[2,3-b]pyrazin-7-yl)-N-((tetrahydrofuran-3-yl)methyl)benzamide]
7.20	Cc1cc(-c2c[nH]c3ncc(-c4cc(C)c5c(c4)CN(CCC(=O)NC[C@H](C)O)CC5)nc23)ccc1C(=O)N(C)C [Example 30, (S)-4-(2-(2-(3-(2-hydroxypropylamino)-3-oxopropyl)-5-methyl-1,2,3,4-tetrahydroisoquinolin-7-yl)-5H-pyrrolo[2,3-b]pyrazin-7-yl)-N, N, 2-trimethylbenzamide]
7.13	Cc1cc(-c2c[nH]c3ncc(-c4cc(C)c5c(c4)CN(C)CC5)nc23)ccc1C(=O)N(C)C[C@H](C)O [Example 11, (S)-4-(2-(2,5-dimethyl-1,2,3,4-tetrahydroisoquinolin-7-yl)-5H-pyrrolo[2,3-b]pyrazin-7-yl)-N-(2-hydroxypropyl)-N, 2-dimethylbenzamide]
7.41	Cc1cc(-c2cnc3[nH]cc(-c4ccc(C(=O)N(C)C[C@@H]5CCOC5)cc4)c3n2)cc2c1CCN(CCN1CCC(C)(O)CC1)C2 [Example 36, (S)-4-(2-(2-(2-(4-hydroxy-4-methylpiperidin-1-yl)ethyl)-5-methyl-1,2,3,4-tetrahydroisoquinolin-7-yl)-5H-pyrrolo[2,3-b]pyrazin-7-yl)-N-methyl-N-((tetrahydrofuran-3-yl)methyl)benzamide]
7.92	CN[C@H]1CCN(C(=O)c2ccc(-c3c[nH]c4ncc(-c5cc(C)c6c(c5)CN(C)CC6)nc34)cc2)C1 [Example 14, (S)-(4-(2-(2,5-dimethyl-1,2,3,4-tetrahydroisoquinolin-7-yl)-5H-pyrrolo[2,3-b]pyrazin-7-yl)phenyl) (3-(methylamino)pyrrolidin-1-yl)methanone]
7.13	COCCCNC(=O)CN1CCc2c(C)cc(-c3cnc4[nH]cc(-c5ccc(C(=O)N(C)C)c(C)c5)c4n3)cc2C1 [Example 52, 4-(2-(2-(2-((3-methoxypropyl)amino)-2-oxoethyl)-5-methyl-1,2,3,4-tetrahydroisoquinolin-7-yl)-5H-pyrrolo[2,3-b]pyrazin-7-yl)-N, N, 2-trimethylbenzamide]
7.59	COc1ccc(NC(=O)CCN2CCc3c(C)cc(-c4cnc5[nH]cc(-c6ccc(C(=O)N(C)C)c(C)c6)c5n4)cc3C2)cc1 [Example 27, 4-(2-(2-(3-(4-methoxyphenylamino)-3-oxopropyl)-5-methyl-1,2,3,4-tetrahydroisoquinolin-7-yl)-5H-pyrrolo[2,3-b]pyrazin-7-yl)-N, N, 2-trimethylbenzamide]
7.07	Cc1cc(-c2c[nH]c3ncc(-c4cc(C)c5c(c4)CN(CCC(=O)NCCN4CCN(C)CC4)CC5)nc23)ccc1C(=O)N(C)C [Example 42, N, N, 2-trimethyl-4-(2-(5-methyl-2-(3-((2-(4-methylpiperazin-1-yl)ethyl)amino)-3-oxopropyl)-1,2,3,4-tetrahydroisoquinolin-7-yl)-5H-pyrrolo[2,3-b]pyrazin-7-yl)benzamide]
7.66	Cc1cc(-c2cnc3[nH]cc(-c4ccc(C(=O)N(C)C)cc4)c3n2)cc2c1CCN(CCC(=O)NC1CC1)C2 [Example 47, 4-(2-(2-(3-(cyclopropylamino)-3-oxopropyl)-5-methyl-1,2,3,4-tetrahydroisoquinolin-7-yl)-5H-pyrrolo[2,3-b]pyrazin-7-yl)-N, N-dimethylbenzamide]
7.72	Cc1cc(-c2cnc3[nH]cc(-c4ccc(C(=O)N(C)C[C@@H]5CCOC5)cc4)c3n2)cc2c1CCN(C)C2 [Example 35, (S)-4-(2-(2,5-dimethyl-1,2,3,4-tetrahydroisoquinolin-7-yl)-5H-pyrrolo[2,3-b]pyrazin-7-yl)-N-methyl-N-((tetrahydrofuran-3-yl)methyl)benzamide]
